Results: ChEMBL document CHEMBL2150976, “Camptothecins in tumor homing via an RGD sequence mimetic” (Bioorg Med Chem Lett, 2012)

Columns and labels:
[1] = test system: A2780; experiment: Cytotoxicity against human A2780 cells overexpressing […] integrin assessed as cell survival after 72 hrs by SRB assay; type: functional, cell-based; conditions: A2780, 72 h
[2] = test system: Mus musculus; experiment: Toxicity in CD1 nude mouse xenografted with human PC3 cells assessed as body weight loss at 60 mg/10 mL/kg, ip q4d x 4 schedule administered on day 3 of tumor implantation measured after 31 days post tumor implantation; type: organism-based, PC-3; conditions: in vivo, 744 h
[3] = test system: Mus musculus; experiment: Toxicity in CD1 nude mouse xenografted with human A498 cells assessed as mortality at 55 mg/10 mL/kg, ip q4d x 8 schedule administered on day 3 of tumor implantation measured after 10 days; type: organism-based; conditions: in vivo, 240 h
[4] = test system: PC-3; experiment: Cytotoxicity against human PC3 cells expressing […] integrin assessed as cell survival after 72 hrs by SRB assay; type: functional, cell-based; conditions: PC-3, 72 h
[5] = test system: Mus musculus; experiment: Toxicity in CD1 nude mouse xenografted with human A498 cells assessed as body weight loss at 55 mg/10 mL/kg, ip q4d x 8 schedule administered on day 3 of tumor implantation measured after 10 days; type: organism-based; conditions: in vivo, 240 h
[6] = molecular target: T1, Integrin alpha-V/beta-3 (Homo sapiens, UniProt P05106+P06756); experiment: Inhibition of vitronectin binding to human alphaVbeta3 integrin over expressed in A2780 cells; type: cell-based
[7] = test system: PC-3; experiment: Antimetastatic activity against human PC3 cells xenografted in CD1 nude mouse assessed as increase in life span at 60 mg/10 mL/kg, ip q4d x 4 schedule administered on day 3 of tumor implantation measured after 31 days post tumor implantation; type: functional
[8] = test system: A498; experiment: Antitumor activity against human A498 cells xenografted in CD1 nude mouse assessed as tumor volume inhibition at 55 mg/10 mL/kg, ip q4d x 8 schedule administered on day 3 of tumor implantation measured after 10 days; type: functional
[9] = molecular target: Integrin alpha-V/beta-5 (Homo sapiens, UniProt P06756+P18084); experiment: Displacement of [125I]echistatin from integrin […] after 3 hrs by gamma counter; type: protein-complex assay
[10] = molecular target: T1, Integrin alpha-V/beta-3; experiment: Displacement of [125I]echistatin from integrin […] after 3 hrs by gamma counter; type: protein-complex assay
[11] = test system: Mus musculus; experiment: Toxicity in CD1 nude mouse xenografted with human PC3 cells assessed as mortality at 60 mg/10 mL/kg, ip q4d x 4 schedule administered on day 3 of tumor implantation measured after 31 days post tumor implantation; type: organism-based, PC-3; conditions: in vivo, 744 h
[12] = Half life in rat plasma at 5 uM after 24 hrs by HPLC analysis; type: ADME, cell-free
[13] = test system: PC-3; experiment: Antimetastatic activity against human PC3 cells xenografted in CD1 nude mouse assessed as area of metastases at 60 mg/10 mL/kg, ip q4d x 4 schedule administered on day 3 of tumor implantation measured after 31 days post tumor implantation; type: functional
[14] = molecular target: T1, Integrin alpha-V/beta-3; experiment: Inhibition of vitronectin binding to human alphaVbeta3 integrin expressed in PC3 cells; type: cell-based, PC-3
[15] = test system: PC-3; experiment: Antimetastatic activity against human PC3 cells xenografted in CD1 nude mouse assessed as median survival time at 60 mg/10 mL/kg, ip q4d x 4 schedule administered on day 3 of tumor implantation measured after 31 days post tumor implantation; type: functional

Integrin alpha-V/beta-5, sequence (P06756 31-889 limits assumed): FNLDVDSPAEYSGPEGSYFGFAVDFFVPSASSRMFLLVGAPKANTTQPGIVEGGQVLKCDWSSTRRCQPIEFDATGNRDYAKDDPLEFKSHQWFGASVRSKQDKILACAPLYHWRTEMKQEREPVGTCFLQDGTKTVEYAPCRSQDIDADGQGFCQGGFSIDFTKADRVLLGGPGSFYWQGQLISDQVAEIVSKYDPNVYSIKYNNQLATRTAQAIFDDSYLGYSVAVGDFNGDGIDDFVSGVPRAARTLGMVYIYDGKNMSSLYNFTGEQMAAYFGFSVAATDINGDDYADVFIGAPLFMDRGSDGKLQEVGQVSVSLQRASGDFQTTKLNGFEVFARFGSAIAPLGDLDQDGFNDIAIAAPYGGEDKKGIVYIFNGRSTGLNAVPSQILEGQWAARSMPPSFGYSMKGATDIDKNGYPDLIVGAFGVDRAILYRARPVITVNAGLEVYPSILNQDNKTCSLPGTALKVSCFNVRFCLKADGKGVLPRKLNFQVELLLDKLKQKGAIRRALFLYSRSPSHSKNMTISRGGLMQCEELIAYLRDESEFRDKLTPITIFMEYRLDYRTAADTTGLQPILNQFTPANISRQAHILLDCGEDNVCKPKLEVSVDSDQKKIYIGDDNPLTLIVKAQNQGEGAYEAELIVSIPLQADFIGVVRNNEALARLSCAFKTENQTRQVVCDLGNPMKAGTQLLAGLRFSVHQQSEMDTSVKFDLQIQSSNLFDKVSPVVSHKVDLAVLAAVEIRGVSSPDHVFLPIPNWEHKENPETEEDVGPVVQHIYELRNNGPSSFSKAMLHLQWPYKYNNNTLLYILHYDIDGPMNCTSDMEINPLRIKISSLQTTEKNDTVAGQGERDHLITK
Integrin alpha-V/beta-5, sequence (P06756 891-1048 limits assumed): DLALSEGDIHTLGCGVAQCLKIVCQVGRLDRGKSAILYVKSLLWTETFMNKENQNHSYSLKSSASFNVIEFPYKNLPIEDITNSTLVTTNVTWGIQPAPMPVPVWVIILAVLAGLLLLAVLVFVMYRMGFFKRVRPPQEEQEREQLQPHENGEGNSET
Integrin alpha-V/beta-5, sequence (P18084 24-799 limits assumed): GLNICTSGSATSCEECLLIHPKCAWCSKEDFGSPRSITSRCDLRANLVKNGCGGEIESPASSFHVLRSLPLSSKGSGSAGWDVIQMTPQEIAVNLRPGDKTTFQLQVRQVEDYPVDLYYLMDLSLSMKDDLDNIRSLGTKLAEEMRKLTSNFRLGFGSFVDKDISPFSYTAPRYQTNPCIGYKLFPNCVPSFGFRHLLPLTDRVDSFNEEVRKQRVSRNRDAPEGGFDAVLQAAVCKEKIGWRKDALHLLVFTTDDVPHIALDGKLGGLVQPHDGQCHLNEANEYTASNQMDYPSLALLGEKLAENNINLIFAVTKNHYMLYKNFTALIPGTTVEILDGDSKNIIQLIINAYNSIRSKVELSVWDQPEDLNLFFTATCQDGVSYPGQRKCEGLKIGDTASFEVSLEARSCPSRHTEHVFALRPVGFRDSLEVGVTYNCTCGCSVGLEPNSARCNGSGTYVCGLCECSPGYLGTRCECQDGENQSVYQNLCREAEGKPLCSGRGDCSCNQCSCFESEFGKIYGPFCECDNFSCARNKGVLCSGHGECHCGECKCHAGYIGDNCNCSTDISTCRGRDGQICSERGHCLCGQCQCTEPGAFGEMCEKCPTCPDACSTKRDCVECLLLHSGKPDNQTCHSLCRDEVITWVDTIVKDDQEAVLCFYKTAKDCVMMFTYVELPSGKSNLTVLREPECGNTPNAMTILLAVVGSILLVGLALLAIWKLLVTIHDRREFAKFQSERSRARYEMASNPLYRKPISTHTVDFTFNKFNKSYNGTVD
T1 sequence (P05106 27-788 limits assumed): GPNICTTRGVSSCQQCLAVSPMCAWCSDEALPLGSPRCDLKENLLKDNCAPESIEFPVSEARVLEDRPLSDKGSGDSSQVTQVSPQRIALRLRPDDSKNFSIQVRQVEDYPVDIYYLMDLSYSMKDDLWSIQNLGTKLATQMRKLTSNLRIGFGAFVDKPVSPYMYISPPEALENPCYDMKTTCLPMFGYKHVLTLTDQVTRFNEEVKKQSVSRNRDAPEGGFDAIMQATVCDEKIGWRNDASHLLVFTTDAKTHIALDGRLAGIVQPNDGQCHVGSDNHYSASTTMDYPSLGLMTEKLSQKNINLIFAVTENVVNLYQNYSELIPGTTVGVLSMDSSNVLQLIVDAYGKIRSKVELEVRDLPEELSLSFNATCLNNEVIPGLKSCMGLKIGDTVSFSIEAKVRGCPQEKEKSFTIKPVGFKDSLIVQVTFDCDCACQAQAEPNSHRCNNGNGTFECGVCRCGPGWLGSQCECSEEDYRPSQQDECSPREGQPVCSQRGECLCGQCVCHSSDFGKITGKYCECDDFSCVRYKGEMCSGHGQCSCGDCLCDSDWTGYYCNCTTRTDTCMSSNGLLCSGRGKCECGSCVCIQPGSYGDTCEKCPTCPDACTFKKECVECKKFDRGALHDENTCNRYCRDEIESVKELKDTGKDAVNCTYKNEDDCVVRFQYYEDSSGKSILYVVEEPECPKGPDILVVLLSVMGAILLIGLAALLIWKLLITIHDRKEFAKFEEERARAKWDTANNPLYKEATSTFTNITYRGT
T1 sequence (P06756 31-889 limits assumed): as the sequence (P06756 31-889 limits assumed) above
T1 sequence (P06756 891-1048 limits assumed): as the sequence (P06756 891-1048 limits assumed) above

Compound | IC50 [1] [nM] | IC50 [4] [nM] | IC50 [6] [nM] | IC50 [9] [nM] | IC50 [10] [nM] | IC50 [14] [nM] | other results
CCc1c2c(nc3ccc(OC(=O)N4CCN(C(=O)c5ccc(COC(=O)N[C@@H](CCC(=O)N6CCN(c7cccc(NC8=NCCCN8)c7)CC6)C(=O)O)cc5)CC4)cc13)-c1cc3c(c(=O)n1C2)COC(=O)[C@]3(O)CC.Cl | 33 | 3400 | 89 | 1 | 1.3 | 37 | Activity [2]: 0%; Activity [3]: Non-toxic; Activity [5]: 3%; Activity [7]: 34%; inhibition (INH) [8]: 39%; Activity [11]: Non-toxic; half-life at 5 µM [12]: 13 h; Activity [13]: 2.5 mm2; MST [15]: 63 days
N[C@@H](CCC(=O)N1CCN(c2cccc(NC3=NCCCN3)c2)CC1)C(=O)O | – | – | – | – | 800 | – | –
CC[C@@]1(O)C(=O)OCc2c1cc1n(c2=O)Cc2cc3cc(O)ccc3nc2-1 [HYDROXYCAMPTOTHECIN] | 4 | 78 | – | – | – | – | –
O=C(N[C@@H](CCC(=O)N1CCN(c2cccc(N=C3NCCCN3)c2)CC1)C(=O)O)OCc1ccc(C(=O)O)cc1 | – | – | 17 | 2.2 | 0.082 | 6.3 | –
COC(=O)c1ccc(CNC(=O)N[C@@H](CCC(=O)N2CCN(c3cccc(N=C4NCCCN4)c3)CC2)C(=O)O)cc1 | – | – | – | – | 109 | – | –
CC[C@@]1(O)C(=O)OCc2c1cc1n(c2=O)Cc2cc3c(CN(C)C)c(OC(=O)N4CCN(C(=O)c5ccc(COC(=O)N[C@@H](CCC(=O)N6CCN(c7cccc(NC8=NCCCN8)c7)CC6)C(=O)O)cc5)CC4)ccc3nc2-1 | 570 | > 1000 | 1000 | 0.73 | 4.97 | 540 | –
CC[C@@]1(O)C(=O)OCc2c1cc1n(c2=O)Cc2cc3c(CN(C)C)c(O)ccc3nc2-1 [TOPOTECAN] | 6 | 185 | – | – | – | – | –
CC[C@@]1(O)C(=O)OCc2c1cc1n(c2=O)Cc2c-1nc1ccc(OC(=O)N3CCN(C(=O)c4ccc(COC(=O)N[C@@H](CCC(=O)N5CCN(c6cccc(NC7=NCCCN7)c6)CC5)C(=O)O)cc4)CC3)cc1c2/C=N/OC(C)(C)C | 67 | > 1000 | 670 | 0.76 | 4.83 | 130 | –
COC(=O)c1ccc(COC(=O)N[C@@H](CCC(=O)N2CCN(c3cccc(NC4=NCCCN4)c3)CC2)C(=O)O)cc1 | – | – | – | – | 2.3 | – | –
CCc1c2c(nc3ccc(O)cc13)-c1cc3c(c(=O)n1C2)COC(=O)[C@]3(O)CC [7-ETHYL-10-HYDROXYCAMPTOTHECIN] | 9 | 2.6 | – | – | – | – | –
O=C(N[C@@H](CCC(=O)N1CCN(c2cccc(NC3=NCCCN3)c2)CC1)C(=O)O)OCc1ccccc1 | – | – | – | – | 3.26 | – | –
CC[C@@]1(O)C(=O)OCc2c1cc1n(c2=O)Cc2c-1nc1ccc(O)cc1c2/C=N/OC(C)(C)C | 0.4 | 15 | – | – | – | – | –
CC[C@@]1(O)C(=O)OCc2c1cc1n(c2=O)Cc2cc3cc(OC(=O)N4CCN(C(=O)c5ccc(COC(=O)N[C@@H](CCC(=O)N6CCN(c7cccc(NC8=NCCCN8)c7)CC6)C(=O)O)cc5)CC4)ccc3nc2-1 | 110 | > 1000 | 730 | 2.05 | 2.28 | 350 | –
